Like-named read-outs stand apart in the source and are kept apart here.
How the values were obtained:
Format in all cases: cell-based
[1] = molecular target: proteins of HEK293T cells transiently overexpressing caspase-6 (Homo sapiens, UniProt P00338); conditions: Probe; protein LDHA P00338
[2] = molecular target: proteins of HEK293T cells transiently overexpressing caspase-6 (Homo sapiens, UniProt P11388); conditions: protein TOP2A (P11388)
[3] = molecular target: proteins of HEK293T cells transiently overexpressing caspase-6 (Homo sapiens, UniProt P13804); conditions: exp_ref Probe; protein ETFA (P13804); analysis C6
[4] = molecular target: proteins of HEK293T cells transiently overexpressing caspase-6 (Homo sapiens, UniProt P16615); conditions: protein ATP2A2 (P16615)
proteins of HEK293T cells transiently overexpressing caspase-6 (Homo sapiens, UniProt P16615), sequence (P16615 whole entry): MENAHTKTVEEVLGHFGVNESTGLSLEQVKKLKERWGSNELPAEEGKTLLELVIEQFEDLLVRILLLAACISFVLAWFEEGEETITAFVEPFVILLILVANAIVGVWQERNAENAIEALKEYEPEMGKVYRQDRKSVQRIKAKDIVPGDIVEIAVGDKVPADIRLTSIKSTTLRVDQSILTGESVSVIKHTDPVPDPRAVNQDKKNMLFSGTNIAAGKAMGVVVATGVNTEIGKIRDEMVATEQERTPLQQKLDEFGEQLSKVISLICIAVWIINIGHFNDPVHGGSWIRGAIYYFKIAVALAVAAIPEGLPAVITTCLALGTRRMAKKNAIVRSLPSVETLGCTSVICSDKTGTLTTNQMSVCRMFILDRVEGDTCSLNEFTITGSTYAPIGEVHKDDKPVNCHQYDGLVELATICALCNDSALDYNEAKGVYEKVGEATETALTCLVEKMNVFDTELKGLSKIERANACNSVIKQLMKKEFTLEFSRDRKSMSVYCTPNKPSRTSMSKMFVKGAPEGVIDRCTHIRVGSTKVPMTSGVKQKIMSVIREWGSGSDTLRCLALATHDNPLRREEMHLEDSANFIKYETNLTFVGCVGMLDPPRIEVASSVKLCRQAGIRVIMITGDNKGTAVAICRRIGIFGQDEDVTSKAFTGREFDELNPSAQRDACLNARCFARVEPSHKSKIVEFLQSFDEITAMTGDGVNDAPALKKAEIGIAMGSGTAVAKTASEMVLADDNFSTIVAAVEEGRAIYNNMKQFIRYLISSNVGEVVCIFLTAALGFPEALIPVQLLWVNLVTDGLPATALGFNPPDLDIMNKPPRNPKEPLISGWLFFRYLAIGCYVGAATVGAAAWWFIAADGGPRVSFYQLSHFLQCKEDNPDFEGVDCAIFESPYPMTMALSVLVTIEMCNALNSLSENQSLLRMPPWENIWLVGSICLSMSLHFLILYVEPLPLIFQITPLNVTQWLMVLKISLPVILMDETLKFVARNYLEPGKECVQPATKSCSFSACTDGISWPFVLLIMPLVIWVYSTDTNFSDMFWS

[5] = molecular target: proteins of HEK293T cells transiently overexpressing caspase-6 (Homo sapiens, UniProt P22087); conditions: exp_ref Probe; protein FBL (P22087); analysis C6
proteins of HEK293T cells transiently overexpressing caspase-6 (Homo sapiens, UniProt P22087), sequence (P22087 whole entry): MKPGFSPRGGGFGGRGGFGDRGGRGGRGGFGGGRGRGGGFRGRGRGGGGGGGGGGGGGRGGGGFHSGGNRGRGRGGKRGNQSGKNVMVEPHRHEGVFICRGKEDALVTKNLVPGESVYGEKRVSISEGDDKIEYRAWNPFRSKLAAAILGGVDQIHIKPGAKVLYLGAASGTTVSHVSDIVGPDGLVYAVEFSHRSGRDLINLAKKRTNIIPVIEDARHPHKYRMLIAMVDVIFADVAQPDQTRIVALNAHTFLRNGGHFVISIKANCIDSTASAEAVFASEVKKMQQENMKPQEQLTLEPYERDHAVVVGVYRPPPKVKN

[6] = molecular target: proteins of HEK293T cells transiently overexpressing caspase-6 (Homo sapiens, UniProt P22626); conditions: exp_ref Probe; protein HNRNPA2B1 (P22626); analysis C6
proteins of HEK293T cells transiently overexpressing caspase-6 (Homo sapiens, UniProt P22626), sequence (P22626 whole entry): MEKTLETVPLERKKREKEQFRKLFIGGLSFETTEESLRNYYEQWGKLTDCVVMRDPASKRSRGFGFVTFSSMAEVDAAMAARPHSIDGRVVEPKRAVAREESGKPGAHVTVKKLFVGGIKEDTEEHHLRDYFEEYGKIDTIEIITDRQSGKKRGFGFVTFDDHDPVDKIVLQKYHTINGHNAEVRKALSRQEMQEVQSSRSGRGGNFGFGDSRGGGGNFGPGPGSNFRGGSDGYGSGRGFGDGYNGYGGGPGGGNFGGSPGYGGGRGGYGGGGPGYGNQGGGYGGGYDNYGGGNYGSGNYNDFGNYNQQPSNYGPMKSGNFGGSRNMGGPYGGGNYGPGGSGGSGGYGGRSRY

[7] = molecular target: proteins of HEK293T cells transiently overexpressing caspase-6 (Homo sapiens, UniProt P23526); conditions: exp_ref Probe; protein AHCY (P23526); analysis C6
[8] = molecular target: proteins of HEK293T cells transiently overexpressing caspase-6 (Homo sapiens, UniProt P26599); conditions: exp_ref Probe; protein PTBP1 (P26599); analysis C6
[9] = molecular target: proteins of HEK293T cells transiently overexpressing caspase-6 (Homo sapiens, UniProt P26640); conditions: Probe; protein VARS P26640
[10] = molecular target: T1, proteins of HEK293T cells transiently overexpressing caspase-6 (Homo sapiens, UniProt P30519); conditions: protein HMOX2 (P30519)
T1 sequence (P30519 1-316): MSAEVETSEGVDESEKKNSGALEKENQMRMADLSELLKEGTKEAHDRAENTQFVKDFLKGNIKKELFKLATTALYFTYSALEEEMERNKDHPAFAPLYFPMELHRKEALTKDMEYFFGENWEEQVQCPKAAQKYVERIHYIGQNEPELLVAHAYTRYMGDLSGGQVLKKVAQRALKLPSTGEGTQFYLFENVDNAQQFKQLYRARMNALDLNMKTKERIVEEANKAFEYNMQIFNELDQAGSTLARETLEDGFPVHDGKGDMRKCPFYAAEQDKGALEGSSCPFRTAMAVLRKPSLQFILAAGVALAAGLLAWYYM

[11] = molecular target: proteins of HEK293T cells transiently overexpressing caspase-6 (Homo sapiens, UniProt P35998); conditions: exp_ref Probe; protein PSMC2 (P35998); analysis C6
proteins of HEK293T cells transiently overexpressing caspase-6 (Homo sapiens, UniProt P35998), sequence (P35998 whole entry): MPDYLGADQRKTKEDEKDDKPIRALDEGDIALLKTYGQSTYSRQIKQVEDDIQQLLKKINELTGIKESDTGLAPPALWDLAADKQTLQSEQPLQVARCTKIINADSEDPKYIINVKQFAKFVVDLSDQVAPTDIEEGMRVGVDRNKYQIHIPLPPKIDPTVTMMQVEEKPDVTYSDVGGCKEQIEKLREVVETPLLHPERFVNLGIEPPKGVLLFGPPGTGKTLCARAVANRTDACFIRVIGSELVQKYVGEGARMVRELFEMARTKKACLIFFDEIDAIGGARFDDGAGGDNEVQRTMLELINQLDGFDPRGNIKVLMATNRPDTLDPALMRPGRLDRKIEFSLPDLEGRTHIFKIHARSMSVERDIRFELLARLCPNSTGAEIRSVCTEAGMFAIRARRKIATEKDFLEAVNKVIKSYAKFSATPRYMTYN

[12] = molecular target: proteins of HEK293T cells transiently overexpressing caspase-6 (Homo sapiens, UniProt P36871); conditions: protein PGM1 (P36871); exp_ref Probe; analysis C6
[13] = molecular target: proteins of HEK293T cells transiently overexpressing caspase-6 (Homo sapiens, UniProt P47756); conditions: Probe; protein CAPZB P47756
[14] = molecular target: proteins of HEK293T cells transiently overexpressing caspase-6 (Homo sapiens, UniProt P48643); conditions: protein CCT5 (P48643)
proteins of HEK293T cells transiently overexpressing caspase-6 (Homo sapiens, UniProt P48643), sequence (P48643 whole entry): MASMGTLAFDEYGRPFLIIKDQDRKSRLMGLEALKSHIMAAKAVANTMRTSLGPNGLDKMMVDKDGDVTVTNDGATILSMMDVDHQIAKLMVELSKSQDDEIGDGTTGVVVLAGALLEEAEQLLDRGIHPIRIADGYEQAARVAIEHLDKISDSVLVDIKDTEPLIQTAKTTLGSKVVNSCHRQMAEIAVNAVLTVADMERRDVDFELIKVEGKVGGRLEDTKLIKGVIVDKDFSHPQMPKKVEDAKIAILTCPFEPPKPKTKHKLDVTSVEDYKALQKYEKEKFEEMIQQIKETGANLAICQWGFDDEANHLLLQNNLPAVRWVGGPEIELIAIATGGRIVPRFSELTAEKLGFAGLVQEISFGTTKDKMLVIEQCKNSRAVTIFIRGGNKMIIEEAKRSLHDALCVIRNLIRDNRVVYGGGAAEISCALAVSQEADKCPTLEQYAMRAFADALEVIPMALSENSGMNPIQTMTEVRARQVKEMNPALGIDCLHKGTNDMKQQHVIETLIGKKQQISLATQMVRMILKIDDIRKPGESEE

[15] = molecular target: proteins of HEK293T cells transiently overexpressing caspase-6 (Homo sapiens, UniProt P50914); conditions: exp_ref Probe; protein RPL14 (P50914); analysis C6
[16] = molecular target: proteins of HEK293T cells transiently overexpressing caspase-6 (Homo sapiens, UniProt P61981); conditions: Probe; protein YWHAG P61981
[17] = molecular target: proteins of HEK293T cells transiently overexpressing caspase-6 (Homo sapiens, UniProt P62280); conditions: protein RPS11 (P62280), analysis C6
[18] = molecular target: proteins of HEK293T cells transiently overexpressing caspase-6 (Homo sapiens, UniProt P78371); conditions: exp_ref Probe; protein CCT2 (P78371); analysis C6
proteins of HEK293T cells transiently overexpressing caspase-6 (Homo sapiens, UniProt P78371), sequence (P78371 whole entry): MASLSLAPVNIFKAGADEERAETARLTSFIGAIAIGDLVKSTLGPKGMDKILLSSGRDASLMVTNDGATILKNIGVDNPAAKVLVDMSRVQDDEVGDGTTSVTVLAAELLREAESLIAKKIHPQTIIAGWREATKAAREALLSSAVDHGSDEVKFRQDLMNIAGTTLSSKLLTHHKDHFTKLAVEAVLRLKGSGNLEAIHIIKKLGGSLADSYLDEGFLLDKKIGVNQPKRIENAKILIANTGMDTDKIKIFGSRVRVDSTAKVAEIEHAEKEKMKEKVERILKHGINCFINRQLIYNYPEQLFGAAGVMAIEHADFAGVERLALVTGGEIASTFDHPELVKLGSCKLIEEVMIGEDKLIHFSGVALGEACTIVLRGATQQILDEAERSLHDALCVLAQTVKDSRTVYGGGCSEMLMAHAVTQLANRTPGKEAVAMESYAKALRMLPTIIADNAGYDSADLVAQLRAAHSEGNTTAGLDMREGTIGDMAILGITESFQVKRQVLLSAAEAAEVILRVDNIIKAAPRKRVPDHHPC

[19] = molecular target: proteins of HEK293T cells transiently overexpressing caspase-6 (Homo sapiens, UniProt Q00765); conditions: protein REEP5 (Q00765)
proteins of HEK293T cells transiently overexpressing caspase-6 (Homo sapiens, UniProt Q00765), sequence (Q00765 whole entry): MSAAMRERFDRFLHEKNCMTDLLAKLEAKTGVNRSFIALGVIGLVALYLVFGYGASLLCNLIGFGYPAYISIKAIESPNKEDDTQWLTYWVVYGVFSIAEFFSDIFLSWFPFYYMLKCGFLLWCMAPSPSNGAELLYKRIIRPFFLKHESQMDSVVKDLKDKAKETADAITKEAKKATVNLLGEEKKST

[20] = molecular target: proteins of HEK293T cells transiently overexpressing caspase-6 (Homo sapiens, UniProt Q15366); conditions: exp_ref Probe; protein PCBP2 (Q15366); analysis C6
[21] = molecular target: proteins of HEK293T cells transiently overexpressing caspase-6 (Homo sapiens, UniProt Q6P2Q9); conditions: exp_ref Probe; protein PRPF8 (Q6P2Q9); analysis C6
[22] = molecular target: proteins of HEK293T cells transiently overexpressing caspase-6 (Homo sapiens, UniProt Q96F25); conditions: Probe; protein ALG14 Q96F25
[23] = molecular target: proteins of HEK293T cells transiently overexpressing caspase-6 (Homo sapiens, UniProt Q9P2E9); conditions: exp_ref Probe; protein RRBP1 (Q9P2E9); analysis C6

proteins of HEK293T cells transiently overexpressing caspase-6 (Homo sapiens, UniProt P11388), sequence (P11388 whole entry): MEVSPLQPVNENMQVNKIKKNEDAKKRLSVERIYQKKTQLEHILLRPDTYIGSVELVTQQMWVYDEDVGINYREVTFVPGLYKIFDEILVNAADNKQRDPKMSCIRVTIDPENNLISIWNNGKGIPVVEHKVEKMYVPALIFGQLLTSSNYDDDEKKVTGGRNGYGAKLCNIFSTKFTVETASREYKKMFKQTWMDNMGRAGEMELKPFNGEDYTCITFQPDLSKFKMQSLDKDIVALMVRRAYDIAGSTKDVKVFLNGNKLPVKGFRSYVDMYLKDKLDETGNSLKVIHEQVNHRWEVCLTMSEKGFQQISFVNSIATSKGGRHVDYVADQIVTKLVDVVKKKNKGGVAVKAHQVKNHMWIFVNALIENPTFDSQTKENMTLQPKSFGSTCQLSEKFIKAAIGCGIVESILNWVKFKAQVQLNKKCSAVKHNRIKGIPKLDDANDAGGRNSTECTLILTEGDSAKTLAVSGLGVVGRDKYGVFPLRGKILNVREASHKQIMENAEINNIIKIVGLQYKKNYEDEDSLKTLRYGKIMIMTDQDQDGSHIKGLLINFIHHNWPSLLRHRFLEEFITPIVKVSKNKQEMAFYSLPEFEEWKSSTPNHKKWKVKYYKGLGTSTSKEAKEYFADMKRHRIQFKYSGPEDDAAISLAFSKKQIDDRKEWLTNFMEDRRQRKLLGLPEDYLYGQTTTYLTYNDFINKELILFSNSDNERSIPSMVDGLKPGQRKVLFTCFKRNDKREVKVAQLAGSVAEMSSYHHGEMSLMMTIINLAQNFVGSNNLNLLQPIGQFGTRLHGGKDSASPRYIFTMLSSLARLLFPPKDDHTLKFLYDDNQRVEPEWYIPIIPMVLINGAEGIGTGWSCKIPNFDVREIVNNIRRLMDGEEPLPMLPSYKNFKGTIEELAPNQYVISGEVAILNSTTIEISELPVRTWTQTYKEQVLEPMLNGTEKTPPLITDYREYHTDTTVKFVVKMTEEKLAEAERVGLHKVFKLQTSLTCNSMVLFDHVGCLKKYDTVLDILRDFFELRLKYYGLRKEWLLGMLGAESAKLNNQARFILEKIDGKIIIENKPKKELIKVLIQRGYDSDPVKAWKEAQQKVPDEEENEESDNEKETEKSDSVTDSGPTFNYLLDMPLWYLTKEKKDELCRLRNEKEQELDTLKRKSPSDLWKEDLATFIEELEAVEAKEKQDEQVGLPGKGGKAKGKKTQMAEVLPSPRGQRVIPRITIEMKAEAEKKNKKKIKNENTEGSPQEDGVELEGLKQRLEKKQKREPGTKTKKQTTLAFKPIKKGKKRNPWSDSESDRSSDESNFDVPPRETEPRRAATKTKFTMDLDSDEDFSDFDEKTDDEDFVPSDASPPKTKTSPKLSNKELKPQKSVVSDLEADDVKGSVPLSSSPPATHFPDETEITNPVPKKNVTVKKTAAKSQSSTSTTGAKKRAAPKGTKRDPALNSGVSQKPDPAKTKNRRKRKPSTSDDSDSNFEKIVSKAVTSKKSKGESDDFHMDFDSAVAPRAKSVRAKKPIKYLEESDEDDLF

C#CCOc1ccc([C@@H]2C[C@@H](C(=O)Nc3ccc(OC(F)(F)F)cc3)CN(S(=O)(=O)C=C)C2)cc1 (relative stereo) [13-t]
enrich.exp.med [1]: -0.5222 | enrich.exp.med.lin [2]: 3.929 | enrich.exp.med.log2 [2]: 1.974 | enrich.exp.med ([2]; exp_ref Probe, analysis C6): 1.974 | enrich.exp.med [3]: 0.5734 | enrich.exp.med.lin [4]: 2.861 | enrich.exp.med.log2 [4]: 1.516 | enrich.exp.med ([4]; exp_ref Probe, analysis C6): 1.516 | enrich.exp.med [5]: 0.8492 | enrich.exp.med [6]: -0.1215 | enrich.exp.med [7]: 0.06916 | enrich.exp.med [8]: 0.1008 | enrich.exp.med [9]: -1.705 | enrich.exp.med.lin [10]: 4.772 | enrich.exp.med.log2 [10]: 2.255 | enrich.exp.med.lin ([10]; Expt Probe, analysis C6): 4.772 | enrich.exp.med.log2 ([10]; Expt Probe, analysis C6): 2.255 | enrich.exp.med ([10]; exp_ref Probe, analysis C6): 2.255 | enrich.exp.med [11]: 0.5412 | enrich.exp.med [12]: 1.9053 | enrich.exp.med [13]: -0.5086 | enrich.exp.med ([14]; exp_ref Probe, analysis C6): 0.7352 | enrich.exp.med.lin [14]: 1.665 | enrich.exp.med.log2 [14]: 0.7352 | enrich.exp.med [15]: 0.5362 | enrich.exp.med [16]: -1.712 | enrich.exp.med.lin ([17]; Expt Probe): 5.0581 | enrich.exp.med.log2 ([17]; Expt Probe): 2.3386 | enrich.exp.med ([17]; exp_ref Probe): 2.3386 | enrich.exp.med [18]: 0.6812 | enrich.exp.med.lin [19]: 12.9915 | enrich.exp.med.log2 [19]: 3.6995 | enrich.exp.med.lin ([19]; Expt Probe, analysis C6): 12.9915 | enrich.exp.med.log2 ([19]; Expt Probe, analysis C6): 3.6995 | enrich.exp.med ([19]; exp_ref Probe, analysis C6): 3.6995 | enrich.exp.med [20]: 0.5184 | enrich.exp.med [21]: 0.2125 | enrich.exp.med [22]: -1.074 | enrich.exp.med [23]: 0.4694
